We go through 5 molecules from article PMC4830886, “Extended evaluation on the ES-D3 cell differentiation assay combined with the BeWo transport model, to predict relative developmental toxicity of triazole compounds” (Archives of Toxicology, 2015).

Data set [1] is described as follows: in vitro BeWo transport model (placental transfer). To be noted: human. As to the method: (§1) To study placental transfer of test compounds, BeWo transport experiments were performed as described previously (Li et al. [2013]). Briefly, BeWo b30 cells (passages 27–45) were cultured in DMEM (Zwijndrecht, The Netherlands), supplemented with 10 % (v/v) heat-inactivated FCS (HyClone-Perbio, Etten-Leur, The Netherlands), 10,000 U/ml penicillin, 10 mg/ml streptomycin and 2 mM L-glutamine. The cells were seeded at a density of 1 × 10^5 cells/cm^2 on transwell® polycarbonate membranes (12 mm diameter, 0.4 μm pore size) (VWR International BV, Amsterdam, The Netherlands) coated with human placental collagen. The medium (0.5-ml apical compartment, 1.5-ml basolateral compartment) was replaced daily. At day 6 postseeding, the BeWo b30 cell layers were used for transport experiments. The barrier-forming capacity of the BeWo cell layers was evaluated by measuring the transepithelial electrical resistance (TEER) of the cell monolayer using a Millicell ERS-2 Volt-Ohm Meter (Millipore, USA) at day 6 postseeding as described previously (Li et al. [2013]). Only the cell layers showing TEER values between 80 and 100 Ω cm^2 were used for transport experiments.
(§2) Transport experiments were initiated by adding 0.5 ml of transport buffer Hank’s balanced salt solution (HBSS, Invitrogen, Breda, The Netherlands) containing the test compound, being 0594, 0595, 0596, 0599, 0600 and 0618, dissolved in DMSO (final solvent concentration 0.5 % DMSO), at concentration of 50 μM, to the apical compartment and 1.5 ml transport buffer to the basolateral compartment. Subsequently, the plate was incubated in a humidified atmosphere with 5 % CO2 at 37 °C. After 15, 30, 60 and 90 min, a sample of 0.2 ml was taken from the basolateral compartment and replaced by an equal volume of transport buffer. At the end of each experiment, a 0.2-ml sample was also taken from the apical compartment. Subsequently, the filters with the BeWo b30 cell layers were washed three times with PBS, cut out of the insert, dissolved in 0.25 ml 65 % (v/v) methanol and sonificated for 15 min in a Bandelin Sonorex RK100 (Berlin, Germany) in order to determine the amount of compound accumulated in the cells. After each experiment, mass balance calculations were performed. In each transport study, amoxicillin and antipyrine were included as control and reference compounds. Amoxicillin transport was included to assess for monolayer integrity since it is a compound known to be transported only to a limited extent across the placenta, whereas antipyrine was included as a control for optimal transport and a reference compound to enable calculation of relative transport rates (Li et al. [2013]). The transport of the six test compounds, as well as the reference compounds amoxicillin and antipyrine, through the permeable membrane of the transwell filter in the absence of BeWo cells was determined as well. […] For each test compound, three independent experiments were performed, with three technical replicates per experiment.
(§3) Samples were analyzed using high-performance liquid chromatography (HPLC) to quantify the amount of test compound in order to determine the transport rate and to perform mass balance calculations. The HPLC system used consisted of a Waters (Milford, MA) 600 controller and a 600 pump, equipped with a photodiode array detector set to record absorption of wavelengths between 200 and 400 nm. A Waters 717 plus autosampler was used for sample injection. The temperature of the autosampler was kept at 7 °C.
(§4) For analysis of all compounds, 50 μl sample was injected to a C18 5 μm reverse-phase column (150 mm × 4.6 mm I.D.) with a guard column (7.5 mm × 4.6 mm I.D.) (Alltech, Bergen op Zoom, The Netherlands). The mobile phase used for analysis of all the test compounds consisted of (A) 0.1 % trifluoroacetic acid in nanopure water and (B) HPLC-grade acetonitrile. Elution was at a flow rate of 0.8 ml/min, starting at 22 % B with a linear increase to 100 % B in 8 min.

In the next data set the test system is BeWo b30 cell layers. The data set is described as follows: in vitro BeWo transport model (placental transfer). The conditions noted are these: BeWo cells, 50 μM (25 nmol) apical, at 90 min. As to the method:
as §1, §2, §3, §4

The nature of data set [2]: WST-1 cytotoxicity assay with ES-D3 cells. To be noted: mouse, ES-D3 embryonic stem cells, WST-1, 5-day exposure, read-out: decline in cell viability. It counts as cell-based. The procedure:
The murine ES-D3 cell line was purchased from ATCC (Wesel, Germany). The cells were maintained in polystyrene cell culture flasks (Corning, The Netherlands) in Dulbecco’s modified Eagle’s medium (DMEM, Invitrogen, Breda, The Netherlands), supplemented with 20 % heat-inactivated fetal calf serum (Lonza, BioWhittaker, Verviers, Belgium), 50 U/ml penicillin with 50 μg/ml streptomycin (Invitrogen), 2 mM L-glutamine (Invitrogen), 0.1 mM β-mercaptoethanol (Sigma-Aldrich) and 1 % (v/v) nonessential amino acids (Invitrogen), at 37 °C and 5 % CO2 in a humidified atmosphere. Cells were kept undifferentiated with 1000 U/ml murine leukemia inhibiting factor (LIF) (Sigma-Aldrich) and subcultured every 2–3 days using nonenzymatic cell dissociation solution (Sigma-Aldrich) to detach the cells.
To determine cytotoxicity of the compounds, a WST-1 assay was performed. This assay measures the influence of test compounds on the formation of the water-soluble formazan reaction product from WST-1 by mitochondrial succinate-tetrazolium reductase enzymes. The cytotoxicity of a test compound inversely correlates with the absorbance of the produced formazan quantified spectrophotometrically as described previously (Reitsma et al. [2013]). ES-D3 cells were exposed to test compounds for the duration of 1 or 5 days as described before (Li et al. [2015]). Briefly, cells were seeded in 96-well plates (Greiner bio-one) at concentrations of 20 × 10^4 cells/ml (1-day exposure) or 1 × 10^4 cells/ml (5-day exposure) in 100 μl culture medium in the absence of LIF and incubated for 1 day to allow cell adherence. Then, the cells were exposed to the test compounds at concentrations up to 60 μM (final solvent concentration 0.2 % DMSO) and subsequently cultured for 1 or 5 days at 37 °C and 5 % CO2 in a humidified atmosphere. Solvent DMSO (0.2 %) was used as a negative control and 1 % Triton X-100 served as a positive control in all cytotoxicity assays. After incubation of 1 or 5 days, 20 μl WST-1 reagent (Roche, Woerden, The Netherlands) was added to each well and the plates were incubated for another 3 h. Then, absorbance was measured at 450 nm using a SpectraMax M2 (Molecular Devices, Sunnyvale, USA). Three wells were used per treatment in each independent experiment. Three independent experiments were done for each compound. The cell viability was expressed as % of the solvent control, with the solvent control set at 100 % viability. Reproducible results were obtained from the treatments of negative and positive controls in all of the cytotoxicity assays.

As usually defined, the Papp is a coefficient for how fast a substance crosses the barrier. A high value points to ready permeation.

In turn, `OC(c1cccnc1)c1c(-c2ccc(F)cc2F)noc1-c1ccc(Cl)cc1F` (stereo not drawn) [compound 0594, [5-(4-Chloro-2-fluoro-phenyl)-3-(2,4-difluoro-phenyl)-isoxazol-4-yl]-pyridin-3-yl-methanol] came in with a Papp at 30 min, 50 μM in data set [1] of 11.5 ± 2.6 ×10⁻⁶ cm/s. In addition, in the data set on BeWo b30 cell layers, the “Intracellular accumulation (% of added amount)” value is on record as 24 % of added amount. Besides, the cytotoxicity at 5 days, 60 µM in data set [2] was found to be 30%.

For `OC(c1cccnc1)c1c(-c2ccc(F)cc2F)csc1-c1ccc(F)cc1F` (stereo not drawn) [compound 0595, [2,4-Bis-(2,4-difluoro-phenyl)-thiophen-3-yl]-pyridin-3-yl-methanol], in data set [1], the Papp at 30 min, 50 μM was 3 ± 0.4 ×10⁻⁶ cm/s. In addition, in the data set on BeWo b30 cell layers, the “Intracellular accumulation (% of added amount)” value is reported as 79 % of added amount. Besides, the cytotoxicity at 5 days, 60 µM in data set [2] was 20%.

In data set [1], `CC(c1nc(-c2ccc(C#N)cc2)cs1)C(O)(Cn1cncn1)c1ccc(F)cc1` (stereo not drawn) [compound 0596, 4-{2-[2-(4-Fluoro-phenyl)-2-hydroxy-1-methyl-3-[1,2,4]triazol-1-yl-propyl]-thiazol-4-yl}-benzonitrile] displayed a Papp at 30 min, 50 μM of 24.4 ± 2.7 ×10⁻⁶ cm/s. The “Intracellular accumulation (% of added amount)” value with BeWo b30 cell layers is on record as 12 % of added amount. In addition, the cytotoxicity at 5 days, 60 µM in data set [2] was determined as 70%.

In turn, `CC(c1nc(-c2ccc(C#N)cc2)cs1)C(O)(Cn1ccnc1)c1ccc(F)cc1` (stereo not drawn) [compound 0599, 4-[2-[2-(4-Fluorophenyl)-2-hydroxy-3-imidazol-1-yl-1-methyl-propyl]thiazol-4-yl]benzonitrile] registered an apparent permeability (Papp) at 30 min, 50 μM in data set [1] of 18.4 ± 1.1 ×10⁻⁶ cm/s. Moreover, in the data set with BeWo b30 cell layers, the “Intracellular accumulation (% of added amount)” value is recorded as 22 % of added amount. Besides, in data set [2], the cytotoxicity at 5 days, 60 µM was found to be 80%.

Take `CC1CC(C)OC(Cn2cncn2)(c2ccc(Oc3ccc(Cl)cc3)cc2Cl)O1` (stereo not drawn) [compound 0600, 1-[[2-[2-Chloro-4-(4-chlorophenoxy)phenyl]-4,6-dimethyl-1,3-dioxan-2-yl]methyl]-1,2,4-triazole]: in data set [1], the apparent permeability (Papp) at 30 min, 50 μM amounted to 7.9 ± 1 ×10⁻⁶ cm/s. For the same molecule, the “Intracellular accumulation (% of added amount)” value in the data set with BeWo b30 cell layers is listed as 66 % of added amount. For the same molecule, the cytotoxicity at 5 days, 60 µM in data set [2] came to 20%.
